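Protocol summary: plate cells (96-well), add compound at 5 concentrations, incubate 48 h, interpolate endpoints linearly. GI50 marks 50% less growth.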 The source made the active and inactive calls. No stated cut-off is given here; in the data, active = GI50 up to about 1.1 µM and inactive = higher.
Tests used:
Experiment in all cases: DTP human tumour cell line panel, 48 h
[1] = test system: RXF 393
[2] = test system: A498
[3] = test system: KM12
[4] = test system: COLO 205
[5] = test system: HCT-15
[6] = test system: HOP-92
[7] = test system: NCI-H522
[8] = test system: NCI/ADR-RES
[9] = test system: HCC 2998
[10] = test system: SW-620
[11] = test system: SK-MEL-2
[12] = test system: K562
[13] = test system: HT-29
[14] = test system: MOLT-4
[15] = test system: NCI-H23
[16] = test system: OVCAR-3
[17] = test system: T47D
[18] = test system: MDA-N
[19] = test system: MDA-MB-231
[20] = test system: BT-549

Row | Structure (SMILES) | GI50 [1] | GI50 [2] | GI50 [3] | GI50 [4] | GI50 [5] [µM] | GI50 [6] | GI50 [7] | GI50 [8] | GI50 [9] | GI50 [10] | GI50 [11] | GI50 [12] | GI50 [13] | GI50 [14] | GI50 [15] | GI50 [16] | GI50 [17] | GI50 [18] | GI50 [19] | GI50 [20]
1 | CC1C(=O)OC2CC[N+]3(CC(=O)c4ccc(Br)cc4)CC=C(COC(=O)C(C)(O)C1(C)O)C23 (centres undefined) | > 375 µM (inactive) | > 375 µM (inactive) | > 375 µM (inactive) | > 375 µM (inactive) | > 375 | > 299 µM (inactive) | > 375 µM (inactive) | > 375 µM (inactive) | > 375 µM (inactive) | > 375 µM (inactive) | > 375 µM (inactive) | > 375 µM (inactive) | > 375 µM (inactive) | > 375 µM (inactive) | > 375 µM (inactive) | > 375 µM (inactive) | – | – | – | –
2 | CCC(O)(c1ccc(OC)cc1)C(c1ccc(OCc2ccccc2)cc1)c1ccc(OCc2ccccc2)cc1 (centres undefined) | > 100 µM (inactive) | > 100 µM (inactive) | > 100 µM (inactive) | > 100 µM (inactive) | > 100 | > 100 µM (inactive) | > 100 µM (inactive) | – | > 100 µM (inactive) | > 100 µM (inactive) | > 100 µM (inactive) | > 100 µM (inactive) | > 100 µM (inactive) | > 100 µM (inactive) | > 100 µM (inactive) | > 100 µM (inactive) | – | – | – | –
3 | CC(=O)c1ccc(N2CCN(C3=C(Cl)C(=O)c4c(O)ccc(O)c4C3=O)CC2)cc1 | 3.02 µM (inactive) | 17.6 µM (inactive) | 10 µM (inactive) | 2.67 µM (inactive) | 8.79 | 2.11 µM (inactive) | – | 9.1 µM (inactive) | 15.6 µM (inactive) | 3.02 µM (inactive) | – | 2.09 µM (inactive) | 2.12 µM (inactive) | 1.68 µM (inactive) | 2.92 µM (inactive) | 5.19 µM (inactive) | 2.91 µM (inactive) | 3.24 µM (inactive) | 2.51 µM (inactive) | –
4 | CC1=Nc2c(ccc3c2C(=O)c2ccccc2C3=O)NC(c2ccncc2)C1 (centres undefined) | > 10 µM (inactive) | 23.8 µM (inactive) | 5.07 µM (inactive) | > 10 µM (inactive) | 9.93 | > 10 µM (inactive) | 6.82 µM (inactive) | – | > 10 µM (inactive) | 52.5 µM (inactive) | > 10 µM (inactive) | > 100 µM (inactive) | > 10 µM (inactive) | 3.73 µM (inactive) | > 10 µM (inactive) | > 10 µM (inactive) | – | – | – | –
5 | O=C(N/C(=C\c1cccc([N+](=O)[O-])c1)c1nc2c(O)nc(S)nc2[nH]1)c1ccccc1 | 45.5 µM (inactive) | > 100 µM (inactive) | > 100 µM (inactive) | > 100 µM (inactive) | > 100 | > 100 µM (inactive) | 66.8 µM (inactive) | – | > 100 µM (inactive) | > 100 µM (inactive) | > 100 µM (inactive) | > 100 µM (inactive) | > 100 µM (inactive) | 94.4 µM (inactive) | > 100 µM (inactive) | > 100 µM (inactive) | – | – | – | –
6 | Cc1ccccc1NC(=O)C(=O)CC(=O)c1sc(-n2nc(-c3ccccc3)cc2-c2ccccc2)nc1C | > 100 µM (inactive) | > 100 µM (inactive) | > 100 µM (inactive) | > 100 µM (inactive) | > 100 | > 100 µM (inactive) | > 100 µM (inactive) | – | > 100 µM (inactive) | > 100 µM (inactive) | > 100 µM (inactive) | > 100 µM (inactive) | > 100 µM (inactive) | > 100 µM (inactive) | > 100 µM (inactive) | > 100 µM (inactive) | – | – | – | –
7 | CN(C)CCNC(=O)Cn1ccc(=O)c2ccc([N+](=O)[O-])cc21 | > 100 µM (inactive) | > 100 µM (inactive) | > 100 µM (inactive) | 47.1 µM (inactive) | 73.8 | > 100 µM (inactive) | > 100 µM (inactive) | > 100 µM (inactive) | > 100 µM (inactive) | > 100 µM (inactive) | > 100 µM (inactive) | > 100 µM (inactive) | 52 µM (inactive) | > 100 µM (inactive) | > 100 µM (inactive) | 38.2 µM (inactive) | > 100 µM (inactive) | > 100 µM (inactive) | – | –
8 | Nc1nc(=O)[nH][nH]1 | > 100 µM (inactive) | > 100 µM (inactive) | > 100 µM (inactive) | > 100 µM (inactive) | > 100 | > 100 µM (inactive) | > 100 µM (inactive) | > 100 µM (inactive) | > 100 µM (inactive) | > 100 µM (inactive) | > 100 µM (inactive) | > 100 µM (inactive) | > 100 µM (inactive) | > 100 µM (inactive) | > 100 µM (inactive) | > 100 µM (inactive) | – | – | – | –
9 | O=c1[nH]c(=O)n(CCOc2ccc(Cl)cc2)cc1Nc1ccccc1 | > 100 µM (inactive) | > 100 µM (inactive) | > 100 µM (inactive) | > 100 µM (inactive) | > 100 | > 100 µM (inactive) | – | > 100 µM (inactive) | > 100 µM (inactive) | > 100 µM (inactive) | – | > 100 µM (inactive) | > 100 µM (inactive) | > 100 µM (inactive) | > 100 µM (inactive) | 85.3 µM (inactive) | – | > 100 µM (inactive) | – | –
10 | O/N=C1/CCCc2nonc21 | > 100 µM (inactive) | – | > 100 µM (inactive) | > 100 µM (inactive) | > 100 | > 100 µM (inactive) | – | > 100 µM (inactive) | > 100 µM (inactive) | > 100 µM (inactive) | > 100 µM (inactive) | > 100 µM (inactive) | > 100 µM (inactive) | > 100 µM (inactive) | > 100 µM (inactive) | > 100 µM (inactive) | > 100 µM (inactive) | > 100 µM (inactive) | > 100 µM (inactive) | –
11 | COc1cc2nc(-c3cccs3)nc(Nc3cccc([N+](=O)[O-])c3)c2cc1OC | 25.9 µM (inactive) | > 100 µM (inactive) | 17.9 µM (inactive) | 19.3 µM (inactive) | 16.5 | – | 17.6 µM (inactive) | 20.8 µM (inactive) | – | 24.2 µM (inactive) | 20.7 µM (inactive) | 39 µM (inactive) | 28.1 µM (inactive) | 24.9 µM (inactive) | 11 µM (inactive) | 20.7 µM (inactive) | 16.4 µM (inactive) | – | 18 µM (inactive) | 19.5 µM (inactive)
12 | CCOC(=O)[C@@]12C3C=CC(CC3)[C@]1(C(=O)c1ccccc1)C(=O)C(=O)N2c1ccccc1 (some centres undefined) | > 100 µM (inactive) | > 100 µM (inactive) | > 100 µM (inactive) | > 100 µM (inactive) | > 100 | > 100 µM (inactive) | > 100 µM (inactive) | > 100 µM (inactive) | > 100 µM (inactive) | > 100 µM (inactive) | > 100 µM (inactive) | > 100 µM (inactive) | > 100 µM (inactive) | > 100 µM (inactive) | > 100 µM (inactive) | > 100 µM (inactive) | > 100 µM (inactive) | > 100 µM (inactive) | > 100 µM (inactive) | –
13 | CN(C)CCCOc1ccc(/C=C2/CCC/C(=C/c3ccc(OCCCN(C)C)cc3)C2=O)cc1 | 1.61 µM (inactive) | 1.85 µM (inactive) | 1.32 µM (inactive) | 1.73 µM (inactive) | 0.995 | 1.16 µM (inactive) | 1.8 µM (inactive) | – | 1.7 µM (inactive) | 1.77 µM (inactive) | 2.03 µM (inactive) | 0.299 µM (active) | 0.442 µM (active) | 0.877 µM (active) | 1.74 µM (inactive) | 2.26 µM (inactive) | – | – | – | –
14 | CCCc1c(OC)c(=O)c2c(O)cc(OC)c3c4c(OC)cc(O)c5c(=O)c(OC)c(CCC)c(c1c23)c54 | – | 10.6 µM (inactive) | 8.57 µM (inactive) | 4.35 µM (inactive) | 2.9 | 5.69 µM (inactive) | 1.53 µM (inactive) | 5.26 µM (inactive) | 14.7 µM (inactive) | 3.15 µM (inactive) | 6.64 µM (inactive) | 2.33 µM (inactive) | 4.79 µM (inactive) | 1.6 µM (inactive) | 7.94 µM (inactive) | 3.47 µM (inactive) | – | 4.05 µM (inactive) | 2.46 µM (inactive) | 2.74 µM (inactive)
15 | CCN(CC)c1c(-c2c(OC(C)C)c(=O)c2=O)c(=O)n2ccsc2c1OC(C)=O | – | > 100 µM (inactive) | > 100 µM (inactive) | > 100 µM (inactive) | > 100 | > 100 µM (inactive) | 17.5 µM (inactive) | > 100 µM (inactive) | > 100 µM (inactive) | > 100 µM (inactive) | > 100 µM (inactive) | > 100 µM (inactive) | > 100 µM (inactive) | > 100 µM (inactive) | > 100 µM (inactive) | > 100 µM (inactive) | – | > 100 µM (inactive) | > 100 µM (inactive) | > 100 µM (inactive)
16 | O=S(=O)(O)c1ccc(-c2c3nc(c(-c4ccc(S(=O)(=O)O)cc4)c4ccc([nH]4)c(-c4ccc(S(=O)(=O)O)cc4)c4nc(c(-c5ccc(S(=O)(=O)O)cc5)c5ccc2[nH]5)C=C4)C=C3)cc1 | 26.9 µM (inactive) | > 100 µM (inactive) | 51.5 µM (inactive) | 42 µM (inactive) | 26.4 | 91.2 µM (inactive) | 47.3 µM (inactive) | 90.6 µM (inactive) | – | 97.5 µM (inactive) | > 100 µM (inactive) | 37.2 µM (inactive) | 49.8 µM (inactive) | 3.1 µM (inactive) | 64.4 µM (inactive) | 36.3 µM (inactive) | 33 µM (inactive) | – | 20.9 µM (inactive) | 28 µM (inactive)

— ChEMBL document CHEMBL1201862, “PubChem BioAssay data set” (2004)
